Series [1] in a line: Solubility of crystalline forms. It is filed as physicochemical. To be noted: room temperature, 24 hours. On the procedure:
The solubility described herein can be measured using the following procedure: • ii. Solubility Analysis Protocol • 1. No less than 2.0 mg samples are weighed into lower chamber of whatman miniuniprep vials (GE Healthcare). 450 μL of buffer was added into each chamber. • 2. Filter pistons of miniuniprep vials are placed and compressed to the position of the liquid level to allow for contact of buffer and compound with the filter during incubation. • 3. The samples are vortexed for 2 minutes followed by incubation at room temperature (about 25±2° C.) for 24 hours with shaking at 500 rpm. • 4. Miniunipreps are compressed to prepare the filtrates for injection into HPLC system. All vials are inspected for visible undissolved material before filtering and for leakage after filtering. • 5. Dilute supernatant with buffer by a factor of 100 folds to make diluents which are analyzed with HPLC.

The target in series [2] is T1, ETA receptor (Homo sapiens, UniProt P25101).
T1 sequence (P25101 21-427): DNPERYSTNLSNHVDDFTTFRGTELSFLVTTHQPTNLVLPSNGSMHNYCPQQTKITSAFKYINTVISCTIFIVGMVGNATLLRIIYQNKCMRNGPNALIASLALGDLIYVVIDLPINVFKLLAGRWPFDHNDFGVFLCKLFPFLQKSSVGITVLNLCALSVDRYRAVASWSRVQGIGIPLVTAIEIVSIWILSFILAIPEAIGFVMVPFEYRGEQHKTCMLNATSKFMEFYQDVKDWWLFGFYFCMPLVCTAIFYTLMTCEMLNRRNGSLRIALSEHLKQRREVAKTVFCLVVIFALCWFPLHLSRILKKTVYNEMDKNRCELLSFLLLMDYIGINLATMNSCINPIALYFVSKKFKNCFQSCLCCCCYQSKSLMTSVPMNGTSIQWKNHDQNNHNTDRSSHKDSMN
Put plainly: Functional potency for ETA receptor. It counts as biochemical. The source says:
(§1) In the above table, the physicochemical data, e.g., solubility, were obtained following standard protocols known in the field (see, e.g., Reis et al., Mini Rev Med Chem., 2010, 10(11):1071-6; Avdeef et al., Expert Opin Drug Metab Toxicol., 2005, 1(2):325-42; Bharate et al., Comb Chem High Throughput Screen., 2016, 19(6):461-9; and Jain et al., J Pharm Biomed Anal., 2013, 86:11-35.); and the biochemical data, i.e., potency for ETA/ETB, were obtained following the protocols known in the field (see, e.g., Kirkby et al., Br J Pharmacol., 2008, 153(6):1105-19; and Maguire et al., Br J Pharmacol., 2014, 171(24):5555-72.).

Series [3] in a line: Solubility (pH 2, pH 7, ethyl acetate). It counts as physicochemical.
From the text: as §1

Series [4] in a line: Stability in solid state. To be noted: 2 h@125° C. It counts as physicochemical.
From the text: as §1

Series [5] in a line: Permeability (PAMPA). It is filed as in vitro ADME.
From the text: as §1
For orientation: In PAMPA a lipid-coated filter parts donor from acceptor wells.

The subject of series [6] is ET-1 induced vasospasm. The series can be described thus: Rabbit ET-1 induced vasospasm model, retinal blood flow (OCT-A, FA). It is filed as in vivo, rabbit (Oryctolagus cuniculus). On the procedure:
Adult, male Dutch-belted rabbits were given a 20 μl intravitreal injection (IVT) of 0.5 μg of ET-1 followed by a 20 μl intravitreal injection of 10-100 μg Edonentan given 30 min after the ET-1 administration. IOP, optical coherence tomography—angiography (OCT-A), and fluorescein angiograms (FA) were performed at pre-specified time points (30, 45, 60, and 75 min) following ET-1 and Edonentan administration to assess retinal blood flow changes induced by ET-1+/−Edonentan. […] To evaluate the effect of retinal blood flow following intravitreally administered endothelin-1 (ET-1) followed by the antagonist Edonentan in the rabbit, rabbits (Oryctolagus cuniculus) were given a 20 μL intravitreal injection of ET-1 in the left eye followed by a 20 μL intravitreal injection of Edonentan at 2 (or 3) different doses (e.g. 0.1 μg, 0.5 μg, 2.5 μg). The pulse ox, tonometry, optical coherence tomography angiography (OCTA), fluorescein angiography (FA) and retinal leakage scoring were performed for evaluation.

Series [7] concerns elevated IOP rat eye. Put plainly: Morrison's rat model of glaucoma (RGC counts, PERG). To be noted: topical eye drops 100 μg per dose, five days a week, four weeks. It is filed as in vivo, Brown Norway rats. The source says:
Adult male and female retired breeder Brown Norway rats (approximate age groups of 8 to 11 months) were obtained from Envigo (Indianapolis, IN). Baseline IOP measurements and pattern electroretinogram (PERG) amplitudes were collected prior to the surgery for elevation of IOP (to ensure that the IOP and PERG amplitudes were in the expected range of values). IOP was elevated in one eye (left eye) of the rats, while the corresponding right eyes served as contralateral controls. The Morrison method to elevate IOP in rats was carried out by injection of 50 μL of hypertonic saline through the episcleral veins to sclerose the trabecular meshwork. IOP was measured twice a week throughout the entire duration of the experiment. […] After detecting an elevation of IOP for two consecutive days, topical administration of eye drops ([…] (100 μg,) per dose of the tested compounds in the IOP elevated eye) was commenced and carried out for five days a week for a total of four weeks. In the 4th week of treatment, PERG analysis was carried out and rats were sacrificed by an overdose of pentobarbital (fatal-Plus). Aqueous humor was collected from the rat eyes, frozen and shipped for analysis. Retinal flat mounts were prepared, immunostained with the RGC marker, Brn3a antibody and surviving RG-Cs were counted in two eccentricities (central and peripheral).
For this study, the Morrison's model was used to induce ocular hypertension in adult male retired breeder Brown Norway rats as previously described by. Morrison et al., (Morrison J C, Moore C G, Deppmeier L M, Gold B G, Meshul C K, Johnson E C. A rat model of chronic pressure-induced optic nerve damage. Exp Eye Res. 1997;64(1):85-96).
The immunostained retinal flat mounts were obtained to measure the retinal ganglion cell (RGC) counts. To obtain immunostained retinal flat mounts, the animals were euthanized after the treatments and then their eyes were enucleated. The eye cups were fixed overnight at 4° C. in 4% paraformaldehyde (PFA) and retinal flat mounts were prepared for collecting images. The retinal ganglion cell (RGC) counting was conducted using the images of immunostained retinal flat mounts. The images were uploaded to ImageJ, a photo editor designed for biology research (Rasband, 1997-2018) and the labeled retinal ganglion cells were counted manually in two eccentricities (central and peripheral).
Pattern ERG (PERG) was used to assess the RGC function. […] Briefly, PERG signals were acquired from a DTL-plus electrode placed on the lower part of the corneal surface and the PERG waves were analyzed using the EMWIN software (LKC). The difference between the amplitude of the major positive (P1) and negative (N2) waves were calculated to decipher the PERG amplitude.

Series [8] is described as follows: Pharmacokinetics after topical or oral administration in the rat. It counts as in vivo, Brown Norway rats. On the procedure:
After the administrations, the animals (N=2) were euthanized at different time points (e.g. 4 and 8 hours) and tissues were collected for analysis. List of tissues collected include plasma, retina/retinal pigment epithelium (RPE)/choroid, vitreous humor and aqueous humor.

In series [9] the test system is ETA/ETB receptor. Conditions: cited from earlier work.
In series [10] the test system is laser-induced glaucoma eye. Put plainly: Laser-induced glaucoma non-human primate, intraocular pressure after topical administration. It counts as in vivo, rhesus macaque, Macaca Mulatta. To be noted: single dose 50 μL topical 0.5% in each eye, 120 minutes. On the procedure:
Non-human primates (rhesus macaque, Macaca Mulatta) were obtained for this study. One eye of each animal underwent induction of elevation of intraocular pressure (TOP) by repeated laser photocoagulation of the trabecular meshwork. Imaging sessions were repeated to monitor the optic nerve head (ONH) and retinal structural changes. A single dose of 0.5% Timolol or a single dose of 2 mg/mL Edonentan was topically administered to three non-human primates that have laser-induced glaucoma in their right eyes (OD) with 1-week wash-out in a randomized order.

The nature of series [11]: Slurry conversion of crystalline forms (relative thermodynamic stability). It is filed as physicochemical. The procedure:
In an alternate method, 150 mg of Edonentan (Form 3) was added to a mixture of isopropanol and water (1 mL and 2 mL, respectively). The resulting slurry was stirred at 15° C. for 48 hours and then filtered.
In an alternate method, 200 mg of Edonentan (Form 1) was added to a mixture of isopropanol and water (1.3 mL and 2.6 mL, respectively). The resulting solution was heated to 80° C. and stirred for 24 h, then cooled and filtered.

In brackets after ≈: the same amount, converted by molar mass. Several values for one entry are separate records, joined by “and”; a condition that tells them apart may be missing. Equal values may be shown once. Read-outs that look alike come from different tables or passages of the source. Where no end group is shown, it is not given here.

As a reminder, the solubility is the concentration that dissolves in the medium under given conditions. As a reminder, the Solubility is how much of the substance goes into solution per volume. High values mean much dissolved substance, low ones little dissolved substance.

On to `Cc1onc(NS(=O)(=O)c2ccccc2-c2ccc(-c3ncco3)cc2CN(C)C(=O)CC(C)(C)C)c1C` [Form 1], for which the “Solubility pH 7.0 Phosphate Buffer” value in series [1] was determined as 264 μg/mL.
As for `CCCCCS(=O)(=O)N(CCC)CCN1C[C@H](c2ccc3c(c2)OCO3)[C@@H](C(=O)O)[C@@H]1c1ccc(OC)c(F)c1` [A-182086, (2R,3R,4S)-4-(2H-1,3-benzodioxol-5-yl)-2-(3-fluoro-4-methoxyphenyl)-1-[2-(N-propylpentane-1-sulfonamido)ethyl]pyrrolidine-3-carboxylic acid], in series [2], the “Functional potency for ETA and ETB receptors (rating)” value is “High potency”; the “Specificity ETA vs ETB (rating)” value is “Low specificity”. In series [3] (ethyl acetate), the “Solubility in Ethyl Acetate (rating)” value was “Good”. Moreover, in series [3] (ethyl acetate, organic solvent or mixture, read-out: Solubility in Ethyl Acetate), the solubility was > 10600 µg/mL and > 18400 µM. Also, the solubility in series [3] (pH 2, read-out: Solubility at pH 2) is listed as 159.8 µM (≈ 92.5 µg/mL). Also, the “Solubility at pH 7” value in [3] (pH 7, amorphous form) is listed as 298.4 μM. For the same compound, in series [4], the “Stability in Solid State (verdict)” value is on record as “unstable” and the “Stability in Solid State, remaining” value was “about 87% remaining/”. Further, in series [5], the “Permeability (rating)” value is “Mid-High”. Besides, in series [6] (healthy rabbits, 0.5 μg ET-1 and 10 μg antagonist IVT (FIG. 3)), the “Fluorescein dye velocity as an index of retinal blood flow” value is given as “improved to control levels”. Besides, in series [7], the “RGC function (PERG)” value is listed as “maintained RGC function” and the “RGC loss (RGC counts, retinal flat mounts)” value is on record as “prevented RGC loss”. For the same compound, the “Detection in retina/RPE/choroid after oral administration” value in series [8] (oral, 50 mg/kg) is given as “detectable”. The “Detection in retina/RPE/choroid, aqueous humor and vitreous humor” value in series [8] (topical eye drop 100 μg, 4 and 8 hours) is recorded as “detected”. Further, the ETA/ETB selectivity in series [9] was 4 fold.
As for `CC(C)(C)NC[C@H](O)COc1nsnc1N1CCOCC1` [Timolol, reference compound], the “IOP reduction from pre-dose to post-dose” value in series [10] (Control 1) was “about 20%”; in series [10] (Control 2), “about 30%”.
Turning to “ET-1: Endothelin-1, given intravitreally to induce vasospasm in rabbit retina (CSCSSLMDKECVYFCHLDIIW; ends and bridges not checked; cysteine pairing not given here; UniProt P05305 53-73, looked up) [reference compound]”, in [6] (0.5 μg ET-1 IVT, within 45 min), the “Vasoconstriction in the retinal vascular beds” value is given as “induced a clear vasoconstriction”.
Take `Cc1onc(NS(=O)(=O)c2ccccc2-c2ccc(-c3ncco3)cc2CN(C)C(=O)CC(C)(C)C)c1C` [Form 4]: the “Solubility pH 7.0 Phosphate Buffer” value in series [1] is recorded as 138 μg/mL. Further, the “Relative thermodynamic stability of crystalline form” value in [11] (isopropanol and water, 80° C., 24 h) is “more thermodynamically stable than Form 1”; in series [11] (slurry in isopropanol and water, 15° C., 48 hours) it was “more thermodynamically stable than Form 3”.
As to `Cc1onc(NS(=O)(=O)c2ccccc2-c2ccc(-c3ncco3)cc2CN(C)C(=O)CC(C)(C)C)c1C` [Form 3], in [1], the “Solubility pH 7.0 Phosphate Buffer” value is on record as 251 μg/mL.
As for `Cc1onc(NS(=O)(=O)c2ccccc2-c2ccc(-c3ncco3)cc2CN(C)C(=O)CC(C)(C)C)c1C` [Form 2], the “Solubility pH 7.0 Phosphate Buffer” value in series [1] is reported as 35 μg/mL.

(Values after patent US20240058265A1, “TREATMENT OF OCULAR DISEASES USING ENDOTHELIN RECEPTOR ANTAGONISTS” (Perfuse Therapeutics, Inc., priority 2021, published 2024).)
